Measurements: publication PMC6150216, “Oleanane-Type Saponins from the Roots of Ligulariopsis shichuana and Their α-Glucosidase Inhibitory Activities” (Molecules : A Journal of Synthetic Chemistry and Natural …, 2017)
Entries after “also recorded” stand apart in the source; their conditions may differ.

What was measured:
[1] = molecular target: yeast α-glucosidase; assay: α-Glucosidase inhibitory activity assay; type: biochemical; settings: for IC50: compound concentration that inhibits α-glucosidase activity by 50%, acarbose positive control, read-out: IC50 against α-glucosidase; for α-glucosidase inhibitory activity (in words): qualitative statement
From the text: α-Glucosidase inhibitory activity was examined by the method described by Omar et al..

[2] = system: glucose-loaded rats; set-up: method as in PMID 11237187; settings: cited from earlier work

| IC50 [1] | Structure (SMILES) | α-glucosidase inhibitory activity (in words) [1] | effect on the incensement of serum glucose levels [2] |
| --- | --- | --- | --- |
| 37.9 ± 3.6 µM | COC(=O)[C@H]1O[C@@H](O[C@H]2CC[C@]3(C)[C@H]4CC=C5[C@@H]6CC(C)(C)CC[C@]6(C=O)[C@@H](O)C[C@@]5(C)[C@]4(C)CC[C@H]3C2(C)C)[C@H](O)[C@@H](O)[C@@H]1O [Compound 2, Ligushicoside B] | excellent inhibitory activities; also recorded: excellent inhibitory activity |  |
| 154 ± 11.2 µM | COC(=O)[C@H]1O[C@@H](O[C@H]2CC[C@]3(C)[C@H]4CC=C5[C@@H]6CC(C)(C)CC[C@]6(CO)[C@@H](O)C[C@@]5(C)[C@]4(C)CC[C@H]3C2(C)C)[C@H](O)[C@@H](O)[C@@H]1O [Compound 5, Ligushicoside E] |  |  |
| 57.6 ± 6.8 µM | CC1(C)CC[C@]2(C(=O)O)CC[C@]3(C)C(=CC[C@@H]4[C@@]5(C)CC[C@H](O[C@@H]6O[C@H](C(=O)O)[C@@H](O)[C@H](O)[C@H]6O)C(C)(C)[C@@H]5CC[C@]43C)[C@@H]2C1 [Compound 7, calenduloside E] |  | significant effects; also recorded: strongly inhibited |
| 134 ± 3.3 µM | COC(=O)[C@H]1O[C@@H](O[C@H]2CC[C@]3(C)[C@H]4CC=C5[C@@H]6CC(C)(C)CC[C@]6(C(=O)O)CC[C@@]5(C)[C@]4(C)CC[C@H]3C2(C)C)[C@H](O)[C@@H](O)[C@@H]1O [Compound 8, calenduloside E 6′-methyl ester] |  | significant effects |

The remaining lines, values behind:

| Structure (SMILES) | IC50 [1] | α-glucosidase inhibitory activity (in words) [1] | effect on the incensement of serum glucose levels [2] |
| --- | --- | --- | --- |
| CC1(C)CC[C@]2(C=O)[C@@H](O)C[C@]3(C)C(=CC[C@@H]4[C@@]5(C)CC[C@H](O[C@@H]6O[C@H](C(=O)O)[C@@H](O)[C@H](O)[C@H]6O)C(C)(C)[C@@H]5CC[C@]43C)[C@@H]2C1 [Compound 1, Ligushicoside A] | 18.7 ± 1.7 µM | excellent inhibitory activities; also recorded: excellent inhibitory activity |  |
| COC(=O)[C@H]1O[C@@H](O[C@H]2CC[C@]3(C)[C@H]4CC=C5[C@@H]6CC(C)(C)CC[C@]6(C)[C@@H](O)C[C@@]5(C)[C@]4(C)C[C@@H](O)[C@H]3C2(C)C)[C@H](O)[C@@H](O)[C@@H]1O [Compound 3, Ligushicoside C] | 105 ± 4.3 µM |  |  |
| COC(=O)[C@H]1O[C@@H](O[C@H]2CC[C@]3(C)[C@H]4CC=C5[C@@H]6CC(C)(C)CC[C@]6(CO)[C@@H](O)C[C@@]5(C)[C@]4(C)C[C@@H](O)[C@H]3C2(C)C)[C@H](O)[C@@H](O)[C@@H]1O [Compound 4, Ligushicoside D] | 89.7 ± 5.1 µM |  |  |
| CC1(C)CC[C@]2(CO)[C@@H](O)C[C@]3(C)C(=CC[C@@H]4[C@@]5(C)CC[C@H](O[C@@H]6O[C@H](C(=O)O)[C@@H](O)[C@H](O)[C@H]6O)C(C)(C)[C@@H]5CC[C@]43C)[C@@H]2C1 [Compound 6, longispinogenin 3-O-β-D-glucuronopyranoside] | 42.6 ± 5.9 µM |  |  |
